According to PMC9826262, “Discovery of Benzo[d]imidazole‐6‐sulfonamides as Bromodomain and Extra‐Terminal Domain (BET) Inhibitors with Selectivity for the First Bromodomain” (Chemmedchem, 2022):
≈ marks a conversion by molar mass, not a printed value.

How the values were obtained:
BD1 (BRD3 and BRD4) = conditions: cited from earlier work
in vitro = conditions: PAMPA, pH 7.4
Protocol: Membrane permeability was estimated by the well‐validated parallel artificial membrane permeability assay (PAMPA) technique.[17, 26]
Parallel Artificial Membrane Permeability Assay (PAMPA). Donor solution (0.2 mM) was prepared by diluting 20 mM dimethyl sulfoxide (DMSO) compound stock solution using phosphate buffer (pH 7.4, 0.01 M). Filters were coated with 5 μL of a 1 % (w/v) dodecane solution of L‐α‐phosphatidylcholine. Donor solution (150 μL) was added to each well of the filter plate. To each well of the acceptor plate, 300 μL of solution (5 % DMSO in phosphate buffer) was added. […] The sandwich was incubated for 24 h at room temperature under gentle shaking. After the incubation time, the sandwich plates were separated and 250 μL of the acceptor plate was transferred to a UV quartz microtiter plate and measured by UV spectroscopy, using a Multiskan GO microplate spectrophotometer (Thermo Fisher Scientific) at 250–500 nm at a step of 5 nm. Reference solutions (250 μL) were prepared diluting the sample stock solutions to the same concentration as that with no membrane barrier.
In this equation, VR is the volume of the acceptor compartment (0.3 cm^3), VD is the donor volume (0.15 cm^3), A is the accessible filter area (0.24 cm^2), and t is the incubation time in seconds.

[1] = CYPs and UGTs dual-activity microsomal stability; format: in vitro ADME; conditions: human liver microsomes; alamethicin, NADPH and UDPGA cofactors; 37 °C, 60 min
Protocol: In this study, the CYPs and UGTs “dual‐activity” microsomal stability assay was carried out to follow the loss of the test compounds over time under CYP‐ and UGT‐mediated metabolic pathways. In detail, the compounds were added to human liver microsomes in the presence of alamethicin, NADPH and UDPGA as cofactors.[24] Alamethicin, a pore‐forming peptide, was used to activate UGTs in human liver microsomes. Testosterone was used as positive control while the negative control was prepared by incubation of the compounds without cofactors up to 60 min. The negative control is essential to detect problems such as non‐specific protein binding or heat instability.
Instrumentation and chromatographic conditions. The metabolic stability of investigated compounds was monitored using a Nexera UHPLC system (Shimadzu, Kyoto, Japan) consisting of a CBM‐20A controller, two LC‐30AD pumps, an SPD‐M20A photo diode array detector, a CTO‐20AC column oven and, a SIL‐30AC autosampler. The chromatographic analyses were accomplished on a Kinetex® Evo C18 column, 150×2.1 mm×2.6 μm (Phenomenex®, Bologna, Italy) maintained at 40 °C. The optimal mobile phase consisted of 0.1 % HCOOH/H2O v/v (A) and 0.1 % HCOOH/ACN v/v (B) delivered at constant flow rate of 0.5 mL/min ^−1. Analysis was performed in gradient elution as follows: 0–8.00 min, 5–95 % B; 8.00–10.00 min, isocratic to 95 % B; then five minutes for column re‐equilibration. Data acquisition was set in the range 190–800 nm and chromatograms were monitored at 254 nm.
In vitro drug metabolism using human liver microsomes. 25 μL of 5 mg/mL human […] microsomes (Thermo Fisher Scientific, Bremen, Germany) were pre‐incubated with 0.625 μL of 100 μg/mL alamethicin. Then 2.5 μL of sample (5 mM) with 168 μL of 100 mM phosphate buffer (pH 7.4), 4 μL of 500 mM MgCl2 were added, the mixture was incubated at 37 °C for 5 min. Optimal UGT activity can be achieved by the addition of MgCl2 and alamethicin as pore forming antibiotic. These components allow for the efficient transfer of a glucuronide product and the cofactor uridine 5′‐diphospho‐α‐D‐glucuronic acid (UDPGA) within the microsomal matrix. The reaction has started by adding 50 μL of mix NADPH 20 mM and UDP‐GlcUA 20 mM as cofactors (1 : 1 v/v) and carried out 37 °C for 60 min in a Thermomixer comfort (Eppendorf, Hamburg, Germany). The reaction was stopped by the addition of 200 μL ice‐cold acetonitrile and then samples were centrifuged at 14,000 rpm at 25 °C for 5 min (Eppendorf® microcentrifuge 5424, Hamburg, Germany). The supernatants were collected and injected in UHPLC. The control at 0 min was obtained by addition of ice‐cold acetonitrile immediately after incubation with microsomes. […]

[2] = Nephelometric solubility determination; format: physicochemical; conditions: for solubility: aqueous buffer, kinetic from dmso stock, PBS with 1 % DMSO, tested at 50 and 100 μM, room temperature, read-out: Solubility (highest concentration where no precipitate was detected)
Protocol: Solubility determination. Solubility of the compounds was determined using Nepheloskan Ascent® (Labsystems). The experiments were performed at room temperature in 96‐well plates in a final volume of 300 μL. Each compound was tested in quadruplicate at the concentrations of 50 and 100 μM in PBS with 1 % DMSO. The measurements were performed at 4 different time points (T0, 30 min, 60 min, 90 min) from the preparation of the samples. Data obtained were compared to control (PBS with 1 % DMSO) and the ratio sample/control was determined for each compound. Compounds are considered soluble if the ratio is≤3.

[3] = tested on: BD1 and BD2 of BET proteins (BRD2, BRD3, BRD4 and BRDT); assay: Protein stability shift assay (ΔTm), BET bromodomains; format: binding; conditions: compound 10 μM; protein 2 μM
Protocol: (§1) The compounds were tested at 10 μM fixed dose and the pan‐BET inhibitor 1 was used as a reference compound.[22] The results obtained from this screening supported our design strategy.
(§2) Protein stability shift assay. Thermal melting experiments were carried out using an Mx3005p Real Time PCR machine (Stratagene). Proteins were buffered in 10 mM HEPES pH 7.5, 500 mM NaCl and assayed in a 96‐well plate at a final concentration of 2 μM in 20 μL volume. Compounds were added at a final concentration of 10 μM. SYPRO Orange (Molecular Probes) was added as a fluorescence probe at a dilution of 1 : 1000. Excitation and emission filters for the SYPRO‐Orange dye were set to 465 nm and 590 nm, respectively. The temperature was raised with a step of 3 °C per minute from 25 °C to 96 °C and fluorescence readings were taken at each interval. The temperature dependence of the fluorescence during the protein denaturation process was approximated by the equation yT=yF+yU-yF/1+e^ΔuGT/RT
(§3) where ΔuG(T) is the difference in unfolding free energy between the folded and unfolded state, R is the gas constant and yF and yU are the fluorescence intensity of the probe in the presence of completely folded and unfolded protein, respectively. The baselines of the denatured and native states were approximated by a linear fit. The observed temperature shifts, ΔTm obs, were recorded as the difference between the transition midpoints of sample and reference wells containing protein without ligand in the same plate and determined by non‐linear least squares fit.

[4] = tested on: non‐BET bromodomain‐containing proteins (CREBBP, PB1 and PCAF); assay: Protein stability shift assay (ΔTm), non-BET bromodomains; format: binding; conditions: compound 10 μM; protein 2 μM
Protocol: as §1, §2, §3

BD1 of BRD4 = tested on: BD1 of BRD4; set-up: method as in earlier work; conditions: ref 19b; cited from earlier work

Structure (SMILES)	ΔTm screening against BET bromodomains [3]	also measured
COc1ccccc1S(=O)(=O)Nc1ccc2c3c(cc(-n4cnc(C)c4)nc13)C(=O)N2C [LT052]	–	IC50 (BD1 (BRD3 and BRD4); read-out: IC50 towards BD1): 87.7 nM; Selectivity for BD1 over BD2 (BD1 (BRD3 and BRD4); tested against BRD3 and BRD4): over 100 fold
Cc1cc(/N=N/c2ccc(S(=O)(=O)Nc3ccccn3)cc2)c(N)cc1O [7 a, MS436, reference compound]	–	Papp at 24 h, 0.2 mM (in vitro): 0.0103 ×10⁻⁶ cm/s; CYPs and UGTs “dual‐activity” microsomal stability (percentage of the parent compound turnover) [1]: 7.8±0.5%; Solubility at 100 μM ([2]; 100 μM, aqueous solution with 1 % DMSO): still soluble; solubility [2]: 100 µM (≈ 38.3 µg/mL)
O=S(=O)(Nc1ccccn1)c1ccc2nc(-c3ccc(O)c(O)c3)[nH]c2c1 [9 o, 2‐(3,4‐dihydroxyphenyl)‐N‐(pyridin‐2‐yl)‐1H‐benzo[d]imidazole‐6‐sulfonamide]	not tolerated	–
O=S(=O)(Nc1ccccn1)c1ccc2nc(-c3ccc(O)cc3)[nH]c2c1 [9 l, 2‐(4‐hydroxyphenyl)‐N‐(pyridin‐2‐yl)‐1H‐benzo[d]imidazole‐6‐sulfonamide]	still active but significantly less selective	–
Cc1cc(-c2nc3ccc(S(=O)(=O)NC4CCCC4)cc3[nH]2)cc(C)c1O [9 h, N ‐cyclopentyl‐2‐(4‐hydroxy‐3,5‐dimethylphenyl)‐1H‐benzo[d]imidazole‐6‐sulfonamide]	affinity toward BETs similar to 9 a and 9 b	ΔTm screening, off-target binding (BD2 of BRDT and non-BET bromodomains) [4]: strong binding to BD2 of BRDT and other non‐BET bromodomain‐containing proteins
O=S(=O)(Nc1ccccn1)c1ccc2nc(-c3ccc(Cl)cc3)[nH]c2c1 [9 n, 2‐(4‐chlorophenyl)‐N‐(pyridin‐2‐yl)‐1H‐benzo[d]imidazole‐6‐sulfonamide]	almost completely inactive	–
COCC(COC)n1c(-c2cc(C)c(=O)n(C)c2)nc2cc(N3CCOCC3)ccc21 [Compound 8, I‐BET469]	–	Selectivity for BD1 over BD2 of BRD2, BRD3 and BRD4 (BD1 of BRD4): 20 fold; pIC50 on BD1 of BRD4 (BD1 of BRD4): 7.9
Cc1cc(-c2nc3ccc(S(=O)(=O)NC4CCCCC4)cc3[nH]2)cc(C)c1O [9 i, N ‐cyclohexyl‐2‐(4‐hydroxy‐3,5‐dimethylphenyl)‐1H‐benzo[d]imidazole‐6‐sulfonamide]	affinity toward BETs similar to 9 a and 9 b	ΔTm screening, off-target binding (BD2 of BRDT and non-BET bromodomains) [4]: strong binding to BD2 of BRDT and other non‐BET bromodomain‐containing proteins
Cc1cc(O)cc(C)c1-c1nc2ccc(S(=O)(=O)Nc3ccccn3)cc2[nH]1 [9 k, 2‐(4‐hydroxy‐2,6‐dimethylphenyl)‐N‐(pyridin‐2‐yl)‐1H‐benzo[d]imidazole‐6‐sulfonamide]	marked loss of activity	–
Cc1cc(-c2nc3ccc(S(=O)(=O)NCc4cccnc4)cc3[nH]2)cc(C)c1O [9 f, 2‐(4‐hydroxy‐3,5‐dimethylphenyl)‐N‐(pyridin‐3‐ylmethyl)‐1H‐benzo[d]imidazole‐6‐sulfonamide]	complete loss of activity	–
CC(C)NCC(O)COc1cccc2ccccc12 (stereo not drawn) [propranolol]	–	Papp at 24 h, 0.2 mM (in vitro): 1.91 ×10⁻⁶ cm/s
Cc1cc(-c2nc3ccc(S(=O)(=O)NCc4ccccn4)cc3[nH]2)cc(C)c1O [9 e, 2‐(4‐hydroxy‐3,5‐dimethylphenyl)‐N‐(pyridin‐2‐ylmethyl)‐1H‐benzo[d]imidazole‐6‐sulfonamide]	complete loss of activity	–
Cc1cc(-c2nc3ccc(S(=O)(=O)Nc4ccccn4)cc3[nH]2)ccc1O [9 j, 2‐(4‐hydroxy‐3‐methylphenyl)‐N‐(pyridin‐2‐yl)‐1H‐benzo[d]imidazole‐6‐sulfonamide]	marked loss of activity	–
O=S(=O)(Nc1ccccn1)c1ccc2nc(-c3cccc(O)c3)[nH]c2c1 [9 m, 2‐(3‐hydroxyphenyl)‐N‐(pyridin‐2‐yl)‐1H‐benzo[d]imidazole‐6‐sulfonamide]	almost completely inactive	–
Cc1cc(-c2nc3ccc(S(N)(=O)=O)cc3[nH]2)cc(C)c1O [9 c, 2‐(4‐hydroxy‐3,5‐dimethylphenyl)‐1H‐benzo[d]imidazole‐6‐sulfonamide]	definitely lower affinity than 9 a and 9 b	–
Cc1cc(-c2nc3ccc(S(=O)(=O)Nc4ccc(C#N)cc4)cc3[nH]2)cc(C)c1O [9 b, N ‐(4‐cyanophenyl)‐2‐(4‐hydroxy‐3,5‐dimethylphenyl)‐1H‐benzo[d]imidazole‐6‐sulfonamide]	increase in the melting temperature of all BET proteins	Papp at 24 h, 0.2 mM (in vitro): 0.0909 ×10⁻⁶ cm/s; CYPs and UGTs “dual‐activity” microsomal stability (percentage of the parent compound turnover) [1]: 16.3±0.5%; solubility [2]: 50 µM (≈ 20.9 µg/mL)
CNS(=O)(=O)c1ccc2nc(-c3cc(C)c(O)c(C)c3)[nH]c2c1 [9 d, 2‐(4‐hydroxy‐3,5‐dimethylphenyl)‐N‐methyl‐1H‐benzo[d]imidazole‐6‐sulfonamide]	definitely lower affinity than 9 a and 9 b	–
Cc1cc(-c2nc3ccc(S(=O)(=O)NC4CC4)cc3[nH]2)cc(C)c1O [9 g, N ‐cyclopropyl‐2‐(4‐hydroxy‐3,5‐dimethylphenyl)‐1H‐benzo[d]imidazole‐6‐sulfonamide]	partial loss of affinity toward BETs	ΔTm screening, off-target binding (BD2 of BRDT and non-BET bromodomains) [4]: strong off‐target binding
O=S(=O)(Nc1ccccn1)c1ccc2nc(-c3ccc(O)cc3O)[nH]c2c1 [9 p, 2‐(2,4‐dihydroxyphenyl)‐N‐(pyridin‐2‐yl)‐1H‐benzo[d]imidazole‐6‐sulfonamide]	active but non‐selective	–
